Legend:
[1] = target: GDP-bound KRAS wild-type protein (Homo sapiens, UniProt P01116); assay: Binding to KRAS by surface plasmon resonance (SPR), Single Cycle Kinetics; details: SPR, Single Cycle Kinetics, GDP-bound KRAS wild-type protein; read-out: KRAS KD
[2] = target: GDP-bound NRAS wild-type protein (Homo sapiens, UniProt P01111); assay: Binding to NRAS by surface plasmon resonance (SPR), Single Cycle Kinetics; details: SPR, GDP-bound NRAS wild-type protein vs GDP-bound KRAS wild-type protein
[3] = target: GDP-bound HRAS wild-type protein (Homo sapiens, UniProt P01112); assay: Binding to HRAS by surface plasmon resonance (SPR), Single Cycle Kinetics; details: SPR, GDP-bound HRAS wild-type protein vs GDP-bound KRAS wild-type protein
GDP-bound HRAS wild-type protein, sequence (P01112 whole entry): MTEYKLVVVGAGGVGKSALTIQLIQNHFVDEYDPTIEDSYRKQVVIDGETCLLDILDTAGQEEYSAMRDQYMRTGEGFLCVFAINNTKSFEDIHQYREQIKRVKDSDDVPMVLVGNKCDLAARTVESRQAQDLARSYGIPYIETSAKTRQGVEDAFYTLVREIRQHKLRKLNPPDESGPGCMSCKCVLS

GDP-bound KRAS wild-type protein, sequence (P01116 whole entry): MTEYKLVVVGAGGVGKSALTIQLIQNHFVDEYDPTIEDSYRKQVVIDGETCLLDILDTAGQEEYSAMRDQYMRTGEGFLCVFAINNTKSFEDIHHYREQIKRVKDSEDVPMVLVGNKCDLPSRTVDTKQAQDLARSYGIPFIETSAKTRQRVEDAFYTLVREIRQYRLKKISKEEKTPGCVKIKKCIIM
GDP-bound NRAS wild-type protein, sequence (P01111 whole entry): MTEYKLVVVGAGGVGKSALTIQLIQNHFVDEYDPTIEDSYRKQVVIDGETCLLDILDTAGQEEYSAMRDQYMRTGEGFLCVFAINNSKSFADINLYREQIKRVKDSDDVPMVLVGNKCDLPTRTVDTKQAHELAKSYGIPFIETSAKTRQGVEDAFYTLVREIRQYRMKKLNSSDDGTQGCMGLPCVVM

Row | SMILES | Kd [1] [nM] | NRAS/KRAS (ratio of KD value for NRAS to KD value for KRAS) [2] | HRAS/KRAS (ratio of KD value for HRAS to KD value for KRAS) [3]
1 | CCO[C@@H]1C[C@H]2C(=O)NC3(CCC3)C(=O)N(C)[C@@H](C3CCCC3)C(=O)N(C)[C@H](C(=O)N(C)C)CC(=O)N(C)[C@@H](CC(C)C)C(=O)N[C@@H]([C@@H](C)CC)C(=O)N(C)CC(=O)N(C)[C@H]3C/C=C\CCN(C3=O)[C@@H](Cc3ccc(C(F)(F)F)cc3)C(=O)N(C)CC(=O)N[C@@H](CCc3cc(F)c(C(F)(F)F)c(F)c3)C(=O)N2C1 [PP1107, (2S,8S,12R,14S,20S,23S,27S,30S,36S,38Z)-20-cyclopentyl-8-[2-[3,5-difluoro-4-(trifluoromethyl)phenyl]ethyl]-12-ethoxy-27-isobutyl-N,N,4,19,22,26,32,35-octamethyl-30-[(1S)-1-methylpropyl]-3,6,9,15,18,21,25,28,31,34,42-undecaoxo-2-[[4-(trifluoromethyl)phenyl]methyl]spiro[1,4,7,10,16,19,22,26,29,32,35-undecazatricyclo[34.5.1.0^10,14]dotetracont-38-ene-17,1′-cyclobutane]-23-carboxamide] | 0.038 | A (a compound having 10 or more and less than 20 is denoted as A) | A (a compound having 10 or more and less than 20 is denoted as A)
2 | CCO[C@@H]1C[C@H]2C(=O)NC3(CCC3)C(=O)N(C)[C@@H](C3CCCC3)C(=O)N(C)[C@H](C(=O)N(C)C)CC(=O)N(C)[C@@H](C)C(=O)N[C@@H]([C@@H](C)CC)C(=O)N(C)CC(=O)N(C)[C@H]3C/C=C\CCN(C3=O)[C@@H](Cc3ccc(C(F)(F)F)cc3)C(=O)N(C)CC(=O)N[C@@H](CCc3cc(F)c(C(F)(F)F)c(F)c3)C(=O)N2C1 [PP1108, (2S,8S,12R,14S,20S,23S,27S,30S,36S,38Z)-20-cyclopentyl-8-[2-[3,5-difluoro-4-(trifluoromethyl)phenyl]ethyl]-12-ethoxy-N,N,4,19,22,26,27,32,35-nonamethyl-30-[(1S)-1-methylpropyl]-3,6,9,15,18,21,25,28,31,34,42-undecaoxo-2-[[4-(trifluoromethyl)phenyl]methyl]spiro[1,4,7,10,16,19,22,26,29,32,35-undecazatricyclo[34.5.1.0^10,14]dotetracont-38-ene-17,1′-cyclobutane]-23-carboxamide] | 0.033 | A (a compound having 10 or more and less than 20 is denoted as A) | A (a compound having 10 or more and less than 20 is denoted as A)
3 | CCO[C@@H]1C[C@H]2C(=O)NC3(CCC3)C(=O)N(C)[C@@H](C3CCCC3)C(=O)N(C)[C@H](C(=O)N(C)C)CC(=O)N(C)[C@@H](C(C)C)C(=O)N[C@@H]([C@@H](C)CC)C(=O)N(C)CC(=O)N(C)[C@H]3C/C=C\CCN(C3=O)[C@@H](Cc3ccc(C(F)(F)F)cc3)C(=O)N(C)CC(=O)N[C@@H](CCc3cc(F)c(C(F)(F)F)c(F)c3)C(=O)N2C1 [PP1109, (2S,8S,12R,14S,20S,23S,27S,30S,36S,38Z)-20-cyclopentyl-8-[2-[3,5-difluoro-4-(trifluoromethyl)phenyl]ethyl]-12-ethoxy-27-isopropyl-N,N,4,19,22,26,32,35-octamethyl-30-[(1S)-1-methylpropyl]-3,6,9,15,18,21,25,28,31,34,42-undecaoxo-2-[[4-(trifluoromethyl)phenyl]methyl]spiro[1,4,7,10,16,19,22,26,29,32,35-undecazatricyclo[34.5.1.0^10,14]dotetracont-38-ene-17,1′-cyclobutane]-23-carboxamide] | 0.12 | A (a compound having 10 or more and less than 20 is denoted as A) | B (a compound having 3 or more and less than 10 is denoted as B)
4 | CCC[C@H]1C(=O)N[C@@H]([C@@H](C)CC)C(=O)N(C)CC(=O)N(C)[C@H]2C/C=C\CCN(C2=O)[C@@H](Cc2ccc(C(F)(F)F)cc2)C(=O)N(C)CC(=O)N[C@@H](CCc2cc(F)c(C(F)(F)F)c(F)c2)C(=O)N2C[C@H](OCC)C[C@H]2C(=O)NC2(CCC2)C(=O)N(C)[C@@H](C2CCCC2)C(=O)N(C)[C@H](C(=O)N(C)C)CC(=O)N1C [PP1110, (2S,8S,12R,14S,20S,23S,27S,30S,36S,38Z)-20-cyclopentyl-8-[2-[3,5-difluoro-4-(trifluoromethyl)phenyl]ethyl]-12-ethoxy-N,N,4,19,22,26,32,35-octamethyl-30-[(1S)-1-methylpropyl]-3,6,9,15,18,21,25,28,31,34,42-undecaoxo-27-propyl-2-[[4-(trifluoromethyl)phenyl]methyl]spiro[1,4,7,10,16,19,22,26,29,32,35-undecazatricyclo[34.5.1.0^10,14]dotetracont-38-ene-17,1′-cyclobutane]-23-carboxamide] | 0.056 | A (a compound having 10 or more and less than 20 is denoted as A) | B (a compound having 3 or more and less than 10 is denoted as B)
5 | CCO[C@@H]1C[C@H]2C(=O)NC3(CCC3)C(=O)N(C)[C@@H](C3CCCC3)C(=O)N(C)[C@H](C(=O)N(C)C)CC(=O)N(C)[C@@H](CC3CC3)C(=O)N[C@@H]([C@@H](C)CC)C(=O)N(C)CC(=O)N(C)[C@H]3C/C=C\CCN(C3=O)[C@@H](Cc3ccc(C(F)(F)F)cc3)C(=O)N(C)CC(=O)N[C@@H](CCc3cc(F)c(C(F)(F)F)c(F)c3)C(=O)N2C1 [PP1111, (2S,8S,12R,14S,20S,23S,27S,30S,36S,38Z)-20-cyclopentyl-27-(cyclopropylmethyl)-8-[2-[3,5-difluoro-4-(trifluoromethyl)phenyl]ethyl]-12-ethoxy-N,N,4,19,22,26,32,35-octamethyl-30-[(1S)-1-methylpropyl]-3,6,9,15,18,21,25,28,31,34,42-undecaoxo-2-[[4-(trifluoromethyl)phenyl]methyl]spiro[1,4,7,10,16,19,22,26,29,32,35-undecazatricyclo[34.5.1.0^10,14]dotetracont-38-ene-17,1′-cyclobutane]-23-carboxamide] | 0.045 | A (a compound having 10 or more and less than 20 is denoted as A) | A (a compound having 10 or more and less than 20 is denoted as A)

Source: patent US20240158446A1, “CYCLIC COMPOUND HAVING SELECTIVE INHIBITORY ACTION ON KRAS OVER HRAS AND NRAS” (CHUGAI SEIYAKU KABUSHIKI KAISHA, priority 2021, published 2024)
